Reference: patent US7109243B2 (IRM LLC, priority 2003, dated 2006)
pKi: −log10 of the molar value.

Columns and labels:
Cathepsin K = molecular target: T1, Cathepsin K (Homo sapiens, UniProt P43235); experiment: Cathepsin K inhibition assay (fluorogenic peptide substrate); selectivity ratio vs cathepsin S; type: biochemical; conditions: ratio of cathepsin K inhibition constant to cathepsin S inhibition constant; Table II
T1 sequence (P43235 115-329): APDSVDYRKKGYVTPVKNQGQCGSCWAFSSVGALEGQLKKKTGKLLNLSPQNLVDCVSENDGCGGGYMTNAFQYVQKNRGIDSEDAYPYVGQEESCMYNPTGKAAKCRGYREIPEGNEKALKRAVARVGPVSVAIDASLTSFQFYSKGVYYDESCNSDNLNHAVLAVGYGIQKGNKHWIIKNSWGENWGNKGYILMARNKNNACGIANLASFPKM
Method in brief: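 Inhibition constants for competitive inhibitors come from apparent values fitted to enzyme progress curves. Substrate, acetyl-Lys-His-Pro-Lys-aminocarbamoylcoumarin (40 μM final), starts the reaction; fluorescence rise read at 380 nm excitation, 450 nm emission. Selectivity ratio: other cathepsin constant over cathepsin S constant.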

Cathepsin S = Cathepsin S (Homo sapiens, UniProt P25774); experiment: Cathepsin S inhibition assay (fluorogenic peptide substrate); type: biochemical; conditions: Table II, compounds of Formula I; read-out: Ki Cat. S
Chain of Cathepsin S (P25774 115-331, species assumed): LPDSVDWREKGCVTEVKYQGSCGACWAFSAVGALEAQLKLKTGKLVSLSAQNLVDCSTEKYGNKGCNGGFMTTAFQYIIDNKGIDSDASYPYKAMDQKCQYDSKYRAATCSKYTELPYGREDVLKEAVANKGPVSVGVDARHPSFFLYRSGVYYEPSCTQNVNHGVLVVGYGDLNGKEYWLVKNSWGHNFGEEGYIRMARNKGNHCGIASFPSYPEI
Method in brief: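 Ki values come from nonlinear fitting of inhibited hydrolysis rates, taking free and total inhibitor concentrations as equal. Rates measured as rising fluorescence at 380/450 nm after reaction start with 50 μM final acetyl-HPVK-aminocarbamoylcoumarin.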

SMILES	Selectivity for Cat. S over Cat. K (Cathepsin K)	pKi (Cathepsin S)
COc1ccc(NCCNC(=O)C(NC(=O)c2cccc(C)c2)c2ccc(OC)cc2)cc1 (stereo not drawn) [Compound 211, N-{(4-Methoxy-phenyl)-[2-(4-methoxy-phenylamino)-ethylcarbamoyl]-methyl}-3-methyl-benzamide]	++ (++, >100)	> 6.00
COc1ccc(NCCNC(=O)C(NC(=O)c2cccc(C)c2)c2ccccc2Cl)cc1 (stereo not drawn) [Compound 216, N-{(2-Chloro-phenyl)-[2-(4-methoxy-phenylamino)-ethylcarbamoyl]-methyl}-3-methyl-benzamide]	+++ (+++, >1000)	> 6.00
COc1ccc(NCCNC(=O)C(NC(=O)c2cccc(C)c2)c2ccc(OCc3ccccc3)cc2)cc1 (stereo not drawn) [Compound 217, N-{(4-Benzyloxy-phenyl)-[2-(4-methoxy-phenylamino)-ethylcarbamoyl]-methyl}-3-methyl-benzamide]	+++ (+++, >1000)	> 6.00
COc1ccc(NCCNC(=O)C(NC(=O)c2cccc(C)c2)c2cccc3ccccc23)cc1 (stereo not drawn) [Compound 218, N-{[2-(4-Methoxy-phenylamino)-ethylcarbamoyl]-naphthalen-1-yl-methyl}-3-methyl-benzamide]	+++ (+++, >1000)	> 6.00
COc1ccc(NCCNC(=O)C(NC(=O)c2cccc(C)c2)c2ccccc2C)cc1 (stereo not drawn) [Compound 220, N-{[2-(4-Methoxy-phenylamino)-ethylcarbamoyl]-o-tolyl-methyl}-3-methyl-benzamide]	++ (++, >100)	> 6.00
COc1ccc(NCCNC(=O)C(NC(=O)c2cccc(C)c2)c2cccc(Cl)c2Cl)cc1 (stereo not drawn) [Compound 223, N-{(2,3-Dichloro-phenyl)-[2-(4-methoxy-phenylamino)-ethylcarbamoyl]-methyl}-3-methyl-benzamide]	++ (++, >100)	> 6.00
COc1ccc(NCCNC(=O)C(NC(=O)c2cccc(C)c2)c2ccc(C)cc2C)cc1 (stereo not drawn) [Compound 224, N-{(2,4-Dimethyl-phenyl)-[2-(4-methoxy-phenylamino)-ethylcarbamoyl]-methyl}-3-methyl-benzamide]	++ (++, >100)	> 6.00
COc1ccc(NCCNC(=O)C(NC(=O)c2cccc(C)c2)c2ccc(OC)cc2OC)cc1 (stereo not drawn) [Compound 225, N-{(2,4-Dimethoxy-phenyl)-[2-(4-methoxy-phenylamino)-ethylcarbamoyl]-methyl}-3-methyl-benzamide]	+ (+, >10)	> 5.00
COc1ccc(NCCNC(=O)C(NC(=O)c2cccc(C)c2)c2cccs2)cc1 (stereo not drawn) [Compound 226, N-{[2-(4-Methoxy-phenylamino)-ethylcarbamoyl]-thiophen-2-yl-methyl}-3-methyl-benzamide]	+ (+, >10)	> 5.00
COc1ccc(NCCNC(=O)C(NC(=O)c2cccc(C)c2)c2ccc(F)cc2)cc1 (stereo not drawn) [Compound 227, N-{(4-Fluoro-phenyl)-[2-(4-methoxy-phenylamino)-ethylcarbamoyl]-methyl}-3-methyl-benzamide]	++ (++, >100)	> 6.00
O=C(N[C@@H](CC1CCCCC1)C(=O)NCCNc1ccc(OC(F)(F)F)cc1)c1ccc(OCc2ccccc2)cc1 [Compound 232, (S)-4-Benzyloxy-N-{2-cyclohexyl-1-[2-(4-trifluoromethoxy-phenylamino)-ethylcarbamoyl]-ethyl}-benzamide]	+ (+, >10)	> 7.00
O=C(N[C@@H](CC1CCCCC1)C(=O)NCCNc1ccc(OC(F)(F)F)cc1)c1ccc(-c2ccccc2)cc1 [Compound 234, (S)-Biphenyl-4-carboxylic acid {2-cyclohexyl-1-[2-(4-trifluoromethoxy-phenylamino)-ethylcarbamoyl]-ethyl}-amide]	+ (+, >10)	> 7.00
COc1ccc(NCCNC(=O)[C@H](Cc2cccc(F)c2)NC(=O)c2cccc(C)c2)cc1 [Compound 236, (S)-N-{2-(3-Fluoro-phenyl)-1-[2-(4-methoxy-phenylamino)-ethylcarbamoyl]-ethyl}-3-methyl-benzamide]	+++ (+++, >1000)	> 7.00
COc1ccc(NCCNC(=O)[C@H](Cc2ccc(F)c(F)c2)NC(=O)c2cccc(C)c2)cc1 [Compound 237, (S)-N-{2-(3,4-Difluoro-phenyl)-1-[2-(4-methoxy-phenylamino)-ethylcarbamoyl]-ethyl}-3-methyl-benzamide]	+++ (+++, >1000)	> 7.00
COc1ccc(NCCNC(=O)[C@H](Cc2cccc(C)c2)NC(=O)c2cccc(C)c2)cc1 [Compound 238, (S)-N-{1-[2-(4-Methoxy-phenylamino)-ethylcarbamoyl]-2-m-tolyl-ethyl}-3-methyl-benzamide]	+ (+, >10)	> 7.00

The next lines start with the values.

Selectivity for Cat. S over Cat. K (Cathepsin K)	pKi (Cathepsin S)	SMILES
++ (++, >100)	> 7.00	COc1ccccc1-c1ccc(C(=O)N[C@@H](CC2CCCCC2)C(=O)NCCNc2ccc(OC(F)(F)F)cc2)o1 [Compound 210, (S)-5-(2-Methoxy-phenyl)-furan-2-carboxylic acid {2-cyclohexyl-1-[2-(4-trifluoromethoxy-phenylamino)-ethylcarbamoyl]-ethyl}-amide]
++ (++, >100)	> 7.00	O=C(N[C@@H](CC1CCCCC1)C(=O)NCCNc1ccc(OC(F)(F)F)cc1)c1ccc(-c2ccccc2F)o1 [Compound 212, (S)-5-(2-Fluoro-phenyl)-furan-2-carboxylic acid {2-cyclohexyl-1-[2-(4-trifluoromethoxy-phenylamino)-ethylcarbamoyl]-ethyl}-amide]
+++ (+++, >1000)	> 7.00	O=C(N[C@@H](CC1CCCCC1)C(=O)NCCNc1ccc(OC(F)(F)F)cc1)c1ccc(-c2ccc(C(F)(F)F)cc2)o1 [Compound 213, (S)-5-(4-Trifluoromethyl-phenyl)-furan-2-carboxylic acid {2-cyclohexyl-1-[2-(4-trifluoromethoxy-phenylamino)-ethylcarbamoyl]-ethyl}-amide]
+++ (+++, >1000)	> 7.00	COc1ccc(NCCNC(=O)C(NC(=O)c2cccc(C)c2)c2ccccc2OCc2ccccc2)cc1 (stereo not drawn) [Compound 214, N-{(2-Benzyloxy-phenyl)-[2-(4-methoxy-phenylamino)-ethylcarbamoyl]-methyl}-3-methyl-benzamide]
+++ (+++, >1000)	> 7.00	O=C(N[C@@H](CC1CCCCC1)C(=O)NCCNc1ccc(OC(F)(F)F)cc1)c1ccc(-c2ccc(OC(F)(F)F)cc2)o1 [Compound 215, (S)-5-(4-Trifluoromethoxy-phenyl)-furan-2-carboxylic acid {2-cyclohexyl-1-[2-(4-trifluoromethoxy-phenylamino)-ethylcarbamoyl]-ethyl}-amide]
++ (++, >100)	> 7.00	O=C(N[C@@H](CC1CCCCC1)C(=O)NCCNc1ccc(OC(F)(F)F)cc1)c1ccc(-c2ccccc2C(F)(F)F)o1 [Compound 219, (S)-5-(2-Trifluoromethyl-phenyl)-furan-2-carboxylic acid {2-cyclohexyl-1-[2-(4-trifluoromethoxy-phenylamino)-ethylcarbamoyl]-ethyl}-amide]
+ (+, >10)	> 7.00	O=C(N[C@@H](CC1CCCCC1)C(=O)NCCNc1ccc(OC(F)(F)F)cc1)c1ccc(-n2cncn2)cc1 [Compound 221, (S)-N-{2-Cyclohexyl-1-[2-(4-trifluoromethoxy-phenylamino)-ethylcarbamoyl]-ethyl}-4-[1,2,4]triazol-1-yl-benzamide]
+++ (+++, >1000)	> 7.00	COc1ccc(NCCNC(=O)C(NC(=O)c2cccc(C)c2)c2ccc(Cl)cc2Cl)cc1 (stereo not drawn) [Compound 222, N-{(2,4-Dichloro-phenyl)-[2-(4-methoxy-phenylamino)-ethylcarbamoyl]-methyl}-3-methyl-benzamide]
+++ (+++, >1000)	> 7.00	COc1ccc(NCCNC(=O)[C@H](Cc2ccc(O)cc2)NC(=O)c2cccc(C)c2)cc1 [Compound 228, (S)-N-{2-(4-Hydroxy-phenyl)-1-[2-(4-methoxy-phenylamino)-ethylcarbamoyl]-ethyl}-3-methyl-benzamide]
+++ (+++, >1000)	> 7.00	COc1ccc(NCCNC(=O)[C@H](Cc2ccc(Cl)cc2Cl)NC(=O)c2cccc(C)c2)cc1 [Compound 229, (S)-N-{2-(2,4-Dichloro-phenyl)-1-[2-(4-methoxy-phenylamino)-ethylcarbamoyl]-ethyl}-3-methyl-benzamide]
+++ (+++, >1000)	> 7.00	COc1ccc(NCCNC(=O)[C@H](Cc2cc(F)cc(F)c2)NC(=O)c2cccc(C)c2)cc1 [Compound 230, (S)-N-{2-(3,5-Difluoro-phenyl)-1-[2-(4-methoxy-phenylamino)-ethylcarbamoyl]-ethyl}-3-methyl-benzamide]
+++ (+++, >1000)	> 7.00	COc1ccc(NCCNC(=O)[C@H](Cc2ccc(Cl)c(Cl)c2)NC(=O)c2cccc(C)c2)cc1 [Compound 231, (S)-N-{2-(3,4-Dichloro-phenyl)-1-[2-(4-methoxy-phenylamino)-ethylcarbamoyl]-ethyl}-3-methyl-benzamide]
